Columns and labels:
[1] = biological target: Full length SHP2 protein (Recombinant Human SHP-2) (Homo sapiens (Human), UniProt Q06124); experiment: SHP2 biochemical assay (DiFMUP, activating peptide IRS1_2pY); settings: DiFMUP substrate, 60 min RT
Procedure: The inhibition of SHP2 by compounds of the invention was monitored using the surrogate substrate DiFMUP after protein activation by a peptide bearing two appropriately spaced phosphotyrosine. […] The generation of the DiFMU product by activated SHP2 was monitored through Fluorescence measurement with a PerkinElmer Envision reader. The inhibitor dose response curves were analyzed with Genedata Screener.

[2] = test system: pERK level in KYSE520 cells; experiment: p-Erk cellular assay in KYSE520 (Mesoscale); type: cell-based; settings: Homo sapiens, KYSE-520, 2 h, 2 h compound incubation, read-out: pERK1/2 in KYSE520 IC50
Procedure: The effect of SHP2 inhibitors on pERK level was assessed using phospho-specific antibody using Mesoscale quantification platform. For measuring change in pERK levels using mesoscale, 30,000 cells of MDA MB468 and KYSE520 cells were plated in 96-well tissue culture treated plate in 175 ul volume of media. After an overnight incubation at 37° C., various SHP2 inhibitors were added in different concentration to each well maintaining duplicate wells across plates and incubated with compounds for 2 h at 37° C. followed by a wash with ice cold PBS buffer. The cells were then lysed in lysis buffer and processed and analyzed for p-ERK/ERK as per manufacturer's instructions (Mesoscale discovery, cat No. K15107D-3).

[3] = Pharmacokinetics in mouse; type: in vivo; settings: for Cmax Normalized to 1 mgk / AUC (normalized 1 mpk): female CD1 mice; for Cmax Normalized to 1 mgk: normalized to 1 mg/kg; for AUC (normalized 1 mpk): normalized to 1 mpk; for Exposure compared to SHP-099: mouse PK
Procedure: Female CD1 mice (N=3) received a single oral (gavage) or a single intravenous (bolus) injection of compound. […] Consecutive blood samples were taken sub-lingually under isofluorane inhalation from animals after 0.083 (IV), 0.25, 0.5, 1, 2, 4, 6 and 24 h and were further processed to obtain plasma. Samples were protein precipitated and analyzed by LC/MS/MS.

Full length SHP2 protein (Recombinant Human SHP-2), sequence (Q06124 2-593): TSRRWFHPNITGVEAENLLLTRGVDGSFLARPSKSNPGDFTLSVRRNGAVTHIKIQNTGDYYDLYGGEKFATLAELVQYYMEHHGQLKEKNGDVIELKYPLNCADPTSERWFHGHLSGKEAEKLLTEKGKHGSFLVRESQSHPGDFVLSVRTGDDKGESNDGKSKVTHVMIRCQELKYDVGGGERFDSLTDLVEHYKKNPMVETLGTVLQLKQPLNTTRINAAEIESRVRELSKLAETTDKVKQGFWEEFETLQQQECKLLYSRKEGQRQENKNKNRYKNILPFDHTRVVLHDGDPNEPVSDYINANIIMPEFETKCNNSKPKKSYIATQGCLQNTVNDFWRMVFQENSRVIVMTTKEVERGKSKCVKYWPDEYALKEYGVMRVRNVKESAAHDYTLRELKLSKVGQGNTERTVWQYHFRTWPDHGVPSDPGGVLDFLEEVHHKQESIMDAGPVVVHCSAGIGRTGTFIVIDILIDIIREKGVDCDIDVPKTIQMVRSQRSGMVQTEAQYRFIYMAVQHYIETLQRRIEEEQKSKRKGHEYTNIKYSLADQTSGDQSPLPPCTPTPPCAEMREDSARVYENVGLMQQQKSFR

SMILES	IC50 [1] [µM]	IC50 [2] [µM]	other results
C[C@@H]1OCC2(CCN(c3nc(N)c(-c4cccc(Cl)c4Cl)c(C(N)=O)n3)CC2)[C@@H]1N (atropisomer, axis not shown; (M)) [Compound 67, (5M)-6-amino-2-[(3S,4S)-4-amino-3-methyl-2-oxa-8-azaspiro[4.5]decan-8-yl]-5-(2,3-dichlorophenyl)pyrimidine-4-carboxamide]	16	–	–
Cc1nc(N2CCC3(CC2)CC(F)(F)C[C@H]3N)nc(C(N)=O)c1-c1cccc(Cl)c1Cl (atropisomer, axis not shown; (M)) [Compound 96, (5M)-2-[(1R)-1-amino-3,3-difluoro-8-azaspiro[4.5]decan-8-yl]-5-(2,3-dichlorophenyl)-6-methylpyrimidine-4-carboxamide]	0.062	–	–
NC(=O)c1nc(N2CCC3(CC2)Cc2ccccc2[C@H]3N)nc(N)c1-c1cccc(Cl)c1Cl (atropisomer, axis not shown; (M)) [Compound 118, (5M)-6-amino-2-[(1S)-1-amino-1,3-dihydrospiro[indene-2,4′-piperidin]-1′-yl]-5-(2,3-dichlorophenyl)pyrimidine-4-carboxamide]	–	0.114	–
Cc1nc(N2CCC3(CC2)Cc2ccccc2[C@H]3N)nc(C(N)=O)c1-c1cccc(Cl)c1Cl (atropisomer, axis not shown; (M)) [Compound 119, (M)-2-[(1S)-1-amino-1,3-dihydrospiro[indene-2,4′-piperidin]-1′-yl]-5-(2,3-dichlorophenyl)-6-methylpyrimidine-4-carboxamide]	–	0.021	–
NC(=O)c1nc(N2CCC3(CC2)Oc2ncccc2[C@@H]3N)nc(N)c1-c1cccc(Cl)c1Cl (atropisomer, axis not shown; (M)) [Compound 130, (4M)-6-amino-2-[(3R)-3-amino-3H-spiro[furo[2,3-b]pyridine-2,4-piperidin]-1-yl]-5-(2,3-dichlorophenyl)pyrimidine-4-carboxamide]	–	2.25	–
C[C@@H]1OCC2(CCN(c3nc(N)c(-c4cccc(Cl)c4Cl)c(C(N)=O)n3)CC2)[C@@H]1N (atropisomer, axis not shown; (P)) [Compound 66, (5P)-6-amino-2-[(3S,4S)-4-amino-3-methyl-2-oxa-8-azaspiro[4.5]decan-8-yl]-5-(2,3-dichlorophenyl)pyrimidine-4-carboxamide]	0.052	–	–
Cc1nc(N2CCC3(CC2)CC(F)(F)C[C@H]3N)nc(C(N)=O)c1-c1cccc(Cl)c1Cl (atropisomer, axis not shown; (P)) [Compound 97, (5P)-2-[(1R)-1-amino-3,3-difluoro-8-azaspiro[4.5]decan-8-yl]-5-(2,3-dichlorophenyl)-6-methylpyrimidine-4-carboxamide]	4.4	–	–
Cc1nc(N2CCC3(CC2)CO[C@@H](C)[C@H]3N)nc(C(N)=O)c1-c1cccc(Cl)c1Cl (single isomer, unassigned) [Compound 95]	–	–	Cmax Normalized to 1 mgk [3]: 0.15 µg/mL; AUC (normalized 1 mpk) [3]: 1214 ng·h/mL; Exposure compared to SHP-099 [3]: higher exposure
NC(=O)c1nc(N2CCC3(CC2)Cc2ccccc2[C@H]3N)nc(N)c1-c1cccc(Cl)c1Cl (single isomer, unassigned) [Compound 117]	–	0.001	–
NC(=O)c1nc(N2CCC3(CC2)Oc2ncccc2C3N)nc(N)c1-c1cccc(Cl)c1Cl (single isomer, unassigned) [Compound 128]	–	0.161	–
CC1(N)CCN(c2nc(N)c(-c3cccc(Cl)c3Cl)c(C(N)=O)n2)CC1 [Compound 27, (4P)-6-amino-2-(4-amino-4-methylpiperidin-1-yl)-5-(2,3-dichlorophenyl)pyrimidine-4-carboxamide]	–	–	Cmax Normalized to 1 mgk [3]: 0.048 µg/mL; AUC (normalized 1 mpk) [3]: 230 ng·h/mL; Exposure compared to SHP-099 [3]: higher exposure
Cc1nc(N2CCC3(CC2)Oc2ncccc2[C@H]3N)nc(C(N)=O)c1-c1cccc(Cl)c1Cl [Compound 124, (4M)-2-[(3R)-3-amino-3H-spiro[furo[2,3-b]pyridine-2,4′-piperidin]-1′-yl]-5-(2,3-dichlorophenyl)-6-methylpyrimidine-4-carboxamide]	–	0.268	–
CC1(N)CCN(c2cnc(-c3cccc(Cl)c3Cl)c(N)n2)CC1 [SHP-099, SHP099, reference compound]	–	–	Cmax Normalized to 1 mgk [3]: 0.048 µg/mL; AUC (normalized 1 mpk) [3]: 129 ng·h/mL

Reference: patent US11696916B2, “Carboxamide-pyrimidine derivatives as SHP2 antagonists” (Merck Patent GmbH, priority 2019, dated 2023)
